These results are taken from patent US20080142759A1, “Pyridine N-Oxide Based Azo Dyes And Their Metal Complexes For Use In Optical Layers For Optical Data Recording” (priority 2004, published 2008).

The nature of the data set: Thermal decomposition by DSC. In kind it is physicochemical. An excerpt: Sharp threshold of thermal decomposition within the required temperature range characterizes the new pyridine N-oxide based azo dyes which are assumed to be desirable for the application in optical layers for optical data recording.
On the technique in general: In DSC, transitions show as peaks or steps in heat flow.

For `CCN1C(O)=C(/N=N/c2c(O)ccc[n+]2[O-])C=CC1=C(C#N)C#N` [(12)], where the note is “DSC”, the “DSC: dec. at” value was found to be 260 °C. Also, the Dec.Pt (Table 1 summary) worked out at 260 °C.
